According to US20020192637A1, “Biological Sensor” (priority 1999, published 2002):

Key:
[1] = test system: hippocampal neuronal cell cultures; assay: Acute addition of antimicrobial agents to spontaneously active hippocampal neuronal cultures on MMEP plates; type: cell-based, rat; settings: for effect on spontaneous activity at up to 10 times the normal concentration/volume: sequential 10 μl additions up to 10 times normal; for effect on spontaneous activity (firing) of the monitored channel: acute addition (10 μl) at the concentration used routinely in tissue culture, hippocampal cultures grown 4 weeks antibiotic-free; for effect of further sequential 10 μl additions: subsequent 10 μl aliquots (penicillin G up to 100 μl at approx. 10 second intervals)
Experimental: Acute administration of antibiotic compounds to neuronal cell cultures: the majority of experiments involved the investigation of acute addition of a range of antibiotics to hippocampal cultures grown in antibiotic-free Neurobasal medium for 4 weeks. In each case MMEP's were screened for activity and a strong, reliable channel was selected for experimentation. Each antibiotic was tested on at least 3 individual cultures and the antibiotic addition was started at the concentration used routinely in tissue culture studies. As controls, the anti-fungal agents Nystatin and Amphotericin B (Fungizone), and the anti-mycoplasma (PPLO) agent Tylosin were also tested. In addition, the agent in which the antibiotic compound was dissolved (usually deionised water or 0.9% sodium chloride), as well as normal medium, were also tested for any effects on neuronal activity. Particular interest was paid to the effects of penicillin G, streptomycin and penicillin/streptomycin mixtures. These are routinely used in tissue culture medium and therefore any possible toxic effects are particularly relevant.

hippocampal cultures = assay: Chronic administration of antibiotics to hippocampal cultures grown over 4 weeks, neuronal network activity; type: cell-based, rat
Experimental: Effects of antibiotics on neuronal network activity: chronic administration of antibiotics to neuronal cell cultures. The chronic effect of antibiotics on neuronal network activity was investigated. Experiments were performed on hippocampal cultures grown in parallel, from the same cell preparation, in the presence or absence of penicillin-streptomycin or gentamycin at the recommended doses.

guinea pigs = settings: high doses, administered chronically to guinea pigs; cited from earlier work
P19 cell line = assay: Differentiation of P19 cell line with retinoic acid; type: cell-based, mouse; settings: retinoic acid in differentiation medium
Experimental: Differentiation: MEM+0.1% FBS+L-Glutamine (2 mM)+Non-essential Amino acids (1×)+30 uM retinoic acid
Neurobasal+B27+Non-essential Amino acids (1×)+L-Glutamine (2 mM)+30 uM retinoic acid
Differentiation experiments have been performed on the P19 cell line using retinoic acid. […] However, only 60-70% of the cells responded to the stimulus, such that over an extended period the non-neuronal cells proliferate vigorously and kill the neuronal cells. The use of serum-free medium has overcome this problem but cultures appear unhealthy after a period of 2 weeks.

CC[C@H]1OC(=O)C[C@@H](O)[C@H](C)[C@@H](O[C@@H]2O[C@H](C)[C@@H](O[C@H]3C[C@@](C)(O)[C@@H](O)[C@H](C)O3)[C@H](N(C)C)[C@H]2O)[C@@H](CC=O)C[C@@H](C)C(=O)/C=C/C(C)=C/[C@@H]1CO[C@@H]1O[C@H](C)[C@@H](O)[C@@H](OC)[C@H]1OC [Tylosin]
effect on spontaneous activity at up to 10 times the normal concentration/volume [1]: No inhibition of activity

Polymyxin ‘B’
effect on spontaneous activity (firing) of the monitored channel [1]: inhibition of activity

Gentamicin
effect on spontaneous activity (firing) of the monitored channel [1]: cessation of neuronal activity
reversibility of inhibition ([1]; complete medium change within the MMEP culture apparatus): reversed by a complete medium change
long-term effect indicated by poor frequency of activity detection (hippocampal cultures; cultures grown for several weeks in the presence of the antibiotic): toxic effect
effect on neuronal network activity after chronic presence (hippocampal cultures; recommended doses, grown over a 4-week period): almost complete cessation of activity
effect on neuronal cytoarchitecture (guinea pigs): major structural changes in neuronal cytoarchitecture

C[C@@H]1[C@H](O)[C@@H](C)/C=C/C=C/CC/C=C/C=C/C=C/C=C/C(O[C@H]2O[C@H](C)[C@@H](O)[C@H](N)[C@@H]2O)CC2O[C@](O)(CC(O)C(O)CCC(O)CC(O)CC(O)CC(=O)O[C@H]1C)CC(O)C2C(=O)O (stereo partly drawn) [Nystatin]
effect on spontaneous activity at up to 10 times the normal concentration/volume [1]: No inhibition of activity

CC1=C(/C=C/C(C)=C/C=C/C(C)=C/C(=O)O)C(C)(C)CCC1 [retinoic acid]
proportion of cells that responded to the stimulus (P19 cell line): 60-70%

[H]/N=C(/N)N[C@H]1[C@H](O)[C@@H](O)[C@H](O[C@@H]2O[C@@H](C)[C@](O)(C=O)[C@H]2O[C@@H]2O[C@@H](CO)[C@H](O)[C@@H](O)[C@@H]2NC)[C@@H](N/C(N)=N\[H])[C@@H]1O [Streptomycin]
silence before activity begins to recover ([1]; 10 μl, particularly strong (>500(V) channel, without change of medium)): approximately 30 seconds
effect on spontaneous activity (firing) of the monitored channel [1]: immediate cessation of firing
effect of further sequential 10 μl additions [1]: immediate interruption of activity
effect on channel with weak activity ([1]; weak activity (<500 μV), single 10 μl addition): sufficient to inhibit activity for several minutes

C[C@@H]1[C@H](O)[C@@H](C)/C=C/C=C/C=C/C=C/C=C/C=C/C=C/[C@H](O[C@@H]2O[C@H](C)[C@@H](O)[C@H](N)[C@@H]2O)C[C@@H]2O[C@](O)(C[C@@H](O)C[C@@H](O)[C@H](O)CC[C@@H](O)C[C@@H](O)CC(=O)O[C@H]1C)C[C@H](O)[C@H]2C(=O)O [amphotericin B, Amphotericin B]
effect on spontaneous activity at up to 10 times the normal concentration/volume [1]: No inhibition of activity

CC1(C)S[C@@H]2[C@H](NC(=O)Cc3ccccc3)C(=O)N2[C@H]1C(=O)O [Penicillin G]
effect on spontaneous activity (firing) of the monitored channel [1]: immediate increase in the firing rate
effect on spike amplitude ([1]; acute addition of 10 μl): small associated decrease in the amplitude
effect on spontaneous activity at up to 10 times the normal concentration/volume [1]: initial acceleration of the firing rate, with an accompanied reduction in spike amplitude
effect of further sequential 10 μl additions [1]: further decrease in the amplitude with eventual slowing of the firing rate
